Results on eight compounds are retold here after US20140171424A1, “HYPERTENSION AND HYPERURICEMIA” (ARDEA BIOSCIENCES, INC., priority 2011, published 2014).

By IC50 is commonly meant the concentration at which inhibition is half-maximal. As usually defined, the EC50 is the concentration needed to bring the measured effect to its halfway point.

Assay [1] concerns the target T1, OAT4 (Homo sapiens, UniProt Q9NSA0).
T1 sequence (Q9NSA0 1-550): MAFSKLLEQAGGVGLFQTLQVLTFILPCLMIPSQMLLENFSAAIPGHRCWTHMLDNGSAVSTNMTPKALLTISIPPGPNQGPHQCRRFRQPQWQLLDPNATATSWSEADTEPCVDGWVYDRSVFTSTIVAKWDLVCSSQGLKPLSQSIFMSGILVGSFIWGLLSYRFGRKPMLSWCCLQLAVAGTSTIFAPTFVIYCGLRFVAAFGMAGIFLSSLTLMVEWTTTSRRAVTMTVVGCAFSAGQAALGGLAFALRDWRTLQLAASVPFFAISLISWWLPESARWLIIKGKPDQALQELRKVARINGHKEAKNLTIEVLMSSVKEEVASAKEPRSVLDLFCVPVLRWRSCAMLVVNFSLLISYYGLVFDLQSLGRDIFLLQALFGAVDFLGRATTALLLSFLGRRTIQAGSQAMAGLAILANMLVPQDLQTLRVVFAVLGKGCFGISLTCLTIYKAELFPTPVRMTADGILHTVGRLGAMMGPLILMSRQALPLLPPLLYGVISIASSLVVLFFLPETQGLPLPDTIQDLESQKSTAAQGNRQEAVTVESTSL
The note with it: read-out: IC50, inhibition of OAT4 uptake of 3H-estrone sulfate; cited from earlier work.

Assay [2] has as its target T1, OAT4. The assay is described as follows: OAT4 urate (14C-uric acid) transport in transfected HEK293/293T cells. The format is cell-based. Set-up: expressed in transfected cells. The note with it: for OAT4 transport activity of 14C-uric acid: UA 100 μM, drug 100 μM, 5 min incubation, OAT4-expressing HEK293 cells. On the procedure:
(§1) For cultured cells, HEK293 cells stably expressing the transporters were produced through transfection of DNA constructs carrying the transporters, antibiotic selection, and clonal selection of clones with high transporter activity. Alternatively, cells transiently expressing the transporters were produced by reverse transfection of HEK293T cells. Transfectants were plated at high density onto poly-L-lysine coated multiwell plates and assayed 1-2 days later.

In assay [3] the target is T1, OAT4. The assay can be described thus: 3H-Estrone sulphate (ES) transport in 293T cells stably expressing OAT4. The format is cell-based. Set-up: expressed in transfected cells. The note with it: 1 mM HCTZ, varying concentrations of Lesinurad. The procedure:
(§2) For cultured cells, HEK293 cells stably expressing the transporters were produced through transfection of DNA constructs carrying the transporters, antibiotic selection, and clonal selection of clones with high transporter activity. Alternatively, cells transiently expressing the transporters were produced by reverse transfection of HEK293T cells. Transfectants were plated at high density onto poly-L-lysine coated multiwell plates and assayed 1-2 days later. Results were similar for stable and transient expressing cells.

The target in assay [4] is T1, OAT4. To be noted: cited from earlier work; for effect on OAT4 uric acid transport activity: J. Am. Soc. Nephrol. 18:430 and 18:3101, 2007.
A short description of assay [5]: Clinical phase 2 study in gout patients not adequately responding to allopurinol (sUA <6 mg/dL responders). The note with it: Week 4; Lesinurad added to allopurinol regimen; patients receiving thiazide diuretic. The format is in vivo, human. On the procedure: FIG. 10A represents a schematic of a clinical phase 2 study design. The study was a 4-week, double-blind, placebo-controlled clinical trial in 208 gout patients who were not adequately responding to allopurinol with serum urate (sUA)≧6 mg/dL while receiving a stable dose of allopurinol for at least 6 weeks. One of three doses of Lesinurad or matching placebo was added to the patients allopurinol regimen. The primary endpoint of the study was mean reduction in sUA at Week 4, with the key secondary endpoint the proportion of subjects with sUA <6.0 mg/dL at Week 4. A small number of patients in this trial received a thiazide diuretic during the treatment period; their response rates were compared to those patients not receiving concomitant thiazide diuretics and the results presented in FIG. 10B.

In another assay the target is T2, URAT1 (Homo sapiens, UniProt Q96S37).
T2 construct: expressed in transfected cells; host or cells: 293T cells
T2 sequence (Q96S37 1-553): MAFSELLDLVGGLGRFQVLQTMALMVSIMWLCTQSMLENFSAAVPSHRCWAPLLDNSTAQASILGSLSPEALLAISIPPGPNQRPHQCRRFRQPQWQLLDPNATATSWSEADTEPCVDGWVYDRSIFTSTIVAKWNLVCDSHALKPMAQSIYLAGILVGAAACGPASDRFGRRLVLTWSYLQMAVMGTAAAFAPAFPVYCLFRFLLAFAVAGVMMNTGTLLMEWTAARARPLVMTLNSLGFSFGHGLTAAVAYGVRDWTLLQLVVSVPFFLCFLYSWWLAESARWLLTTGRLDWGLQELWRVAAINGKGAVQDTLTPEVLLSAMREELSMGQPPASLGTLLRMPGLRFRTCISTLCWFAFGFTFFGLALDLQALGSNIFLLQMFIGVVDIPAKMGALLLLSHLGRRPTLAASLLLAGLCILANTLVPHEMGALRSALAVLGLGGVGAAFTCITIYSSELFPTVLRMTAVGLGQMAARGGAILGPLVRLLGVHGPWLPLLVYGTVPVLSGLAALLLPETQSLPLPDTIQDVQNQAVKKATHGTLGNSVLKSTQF
The assay can be described thus: URAT1 UA transport in 293T cells. The format is cell-based. The note with it: 293T cells expressing URAT1 and/or OAT4; varying concentrations. On the procedure:
as §1

In assay [6] the target is T1, OAT4. The assay can be described thus: OAT4 transport of 6-carboxyfluorescein (CF) in transfected HEK293/HEK293T cells. To be noted: for OAT4 transport activity of 6-carboxyfluorescein: CF 5 μM, drug 100 μM, 5 min incubation, OAT4-expressing HEK293 cells. The format is cell-based. Set-up: expressed in transfected cells. On the procedure:
as §2

Molecules are shown by their SMILES. Where “and” joins values, the source holds several entries; their conditions need not be identical. Equal values may be shown once. Read-outs that look alike come from different tables or passages of the source.

As to `CCc1oc2cc(O)ccc2c1C(=O)c1cc(Br)c(O)c(Br)c1` [6-hydroxybenzbromarone], the IC50 at OAT4 [1] was 3.2 µM. As to `CCc1oc2ccccc2c1C(=O)c1cc(Br)c(O)c(Br)c1` [Benzbromarone], the IC50 on OAT4 [2] (varying amounts of drug, read-out: OAT4 IC50 (OAT4 urate transport, cpm)) amounted to 10 µM.

In the case of `NS(=O)(=O)c1cc2c(cc1Cl)NCNS2(=O)=O` [Hydrochlorothiazide, 6-Chloro-1,1-dioxo-3,4-dihydro-2H-1,2,4-benzothiadiazine-7-sulfonamide], the “effect of HCTZ on Lesinurad-mediated inhibition of OAT4 ES transport” value on OAT4 [3] is reported as “no effect on Lesinurad-mediated inhibition of OAT4 transporter activity”. Also, at OAT4 [4], the “effect on OAT4 uric acid transport activity” value is reported as “increase OAT4 uric acid transport activity”. In addition, the “increase of OAT4-mediated uric acid uptake” value at OAT4 [4] (one study) is on record as 2.6 fold. On to `O=C(O)CSc1nnc(Br)n1-c1ccc(C2CC2)c2ccccc12` [Lesinurad, 2-(5-bromo-4-(4-cyclopropylnaphthalen-l-yl)-4H-1,2,4-triazol-3-ylthio)acetic acid], for which the “proportion of patients with sUA below 6 mg/dL, patients taking diuretics vs not” value in assay [5] is reported as “patients receiving diuretics had responded well to Lesinurad”. Further, the “percent inhibition of UA transport, URAT1” value at URAT1 is “inhibits URAT1 and OAT4 with similar potency”. Turning to `Oc1ncnc2[nH]ncc12` [allopurinol], on OAT4 [6], the “OAT4 transport activity of 6-carboxyfluorescein” value is given as “do not inhibit OAT4 transport activity”. Also, the “OAT4 transport activity of 14C-uric acid” value on OAT4 [2] is recorded as “do not inhibit OAT4 transport activity”.

Regarding `O=c1[nH]c(=O)c2c[nH]nc2[nH]1` [oxypurinol], the “OAT4 transport activity of 6-carboxyfluorescein” value at OAT4 [6] is “do not inhibit OAT4 transport activity”. The “OAT4 transport activity of 14C-uric acid” value on OAT4 [2] was “do not inhibit OAT4 transport activity”. Regarding `Cc1cccc(Nc2ccncc2S(=O)(=O)NC(=O)NC(C)C)c1` [torasemide], the “effect on OAT4 uric acid transport activity” value on OAT4 [4] is listed as “increase OAT4 uric acid transport activity”. Take `O=c1[nH]c(=O)c2[nH]c(=O)[nH]c2[nH]1` [uric acid]: on OAT4 [6] (HEK293T cells transiently transfected with OAT4, CF substrate, 0, 0.5, 1, 2 nM cold uric acid, read-out: EC50 of cold uric acid as competitive substrate for OAT4 of CF), the EC50 was 900 µM and ~900 µM.
